According to patent US20090312414A1, “Treatment Of Lower Urinary Tract Dysfunction With CB2-Receptor-Selective Agonists” (priority 2008, published 2009):

Key:
[1] = system: urethane-anesthetized rats, acetic acid model; experiment: Cystometry in acetic acid bladder hyperactivity model; type: in vivo, rat; conditions: for Effect on intercontraction interval (ICI): any tested dose i.v., 20, 40 or 60 min after administration
Procedure: As used herein, the term “acute” means that the animals were dosed only one time, 30 minutes prior to taking the cystometry measurements (i.e., 30 minutes prior to the observation period). The acetic acid-induced model is an irritative model in which increased micturition frequency (decreased micturition interval) and reduced bladder capacity cystometry may be obtained after an intravesical infusion of a dilute solution of acetic acid (McMurray G, Casey J H, Naylor A M. Animal models in urological disease and sexual dysfunction. Br J Pharmacol. 2006; 147 Suppl:S62; Kakizaki H, de Groat W C. Role of spinal nitric oxide in the facilitation of the micturition reflex by bladder irritation. J Urol 1996; 155:355).
Adult female Wistar rats (Janvier, Le Genest Saint Lisles, France), weighing 225-250 g were used. They were delivered to the laboratory at least 5 days before the experiments in order to be acclimatized to laboratory conditions, and were given food (Teklad Global 16% Protein Rodent Diet, Harlan, Gannat, France) and water ad libitum. The animal room was maintained at 21-24° C. with a 12/12 hours alternating light-dark cycle (light phase 07:00-19:00).
Rats were anesthetized by intraperitoneal injection of urethane (1.5 g/kg). After making a midline incision of the abdomen, a polyethylene catheter (0.3 mm ID and 0.7 mm OD) was implanted in the bladder through the dome. An IV catheter (0.58 mm ID and 0.96 mm OD) was also introduced into a jugular vein for test substance administration.
CB2-receptor-selective agonists (compounds of Formulas II, III and IV) were initially dissolved in a vehicle containing a co-solvent mixture of Cremophor EL® (70%, BASF Corporation, Florham Park, N.J.) and ethanol (30%) as a 20-fold concentrated stock solution of the highest dose for testing. For lower doses, individual 20× stock solutions in Cremophor EL® (70%) and ethanol (30%) were also prepared by further dilution of the original 20× stock solution. Just prior to use, the appropriate 20× compound stock solution or vehicle was diluted 1:20 dilution (v:v) with saline to give the appropriate final concentration for dosing, and a single test substance or its vehicle were administered intravenously in a volume of 5 ml/kg and at an infusion rate of 0.2 ml/min.
Cystometric investigations were performed in the urethane anesthetized rats after bladder and jugular vein catheter implantation surgery. The bladder catheter was connected via a T-tube to a MX 860 Novatrans III Gold strain gauge (Medex Medical SARL, Nantes-Carquefou, France) and to a single-syringe infusion pump (70-2208 Model II Plus, Harvard Apparatus; Les Ulis, France). Physiological saline or 0.2% acetic acid (AA) in saline was infused into the bladder at a constant flow rate (0.05 ml/min), and intravesical pressure was recorded continuously using a MacLab/8e interface (ADInstruments Pty Ltd., Castle Hill, Australia) and the Chart software program. After a control period of 30 minutes (to calculate basal values), a single test substance or its vehicle were administered IV and the intravesical pressure was recorded for 1 hour after compound administration.
Intravesical pressure data were analyzed with Microsoft Excel software. The micturition parameters measured were the following: Basal Pressure (“BP,” mmHg); Threshold Pressure (“ThP,” pressure at which micturition occurs, mmHg); Amplitude of Micturition (“AM,” pressure between ThP and Micturition Pressure, mmHg); Intercontraction Interval (“ICI,” time between two subsequent micturitions, sec); Micturition Frequency (“MF,” number of micturition contractions per 15 minute interval); and Area Under the Curve (“AUC” per 15 minute interval, mmHg·sec) was calculated from the lowest intravesical pressure value during the 15 minute interval. Bladder capacity (“BC”) was measured in ml.
For each rat, basal values for each parameter were calculated as the mean of the last four micturitions before vehicle or test substance administration. […]

[2] = biological target: CB2 receptor (Homo sapiens, UniProt P34972); experiment: CB2 binding assay (displacement of radiolabeled agonist); conditions: for IC50: displaces 50% of a radiolabeled agonist
[3] = biological target: CB1 receptor (Homo sapiens, UniProt P21554); experiment: biochemical; type: binding; conditions: displaces 50% of a radiolabeled agonist
Chain of CB1 receptor (P21554 whole entry): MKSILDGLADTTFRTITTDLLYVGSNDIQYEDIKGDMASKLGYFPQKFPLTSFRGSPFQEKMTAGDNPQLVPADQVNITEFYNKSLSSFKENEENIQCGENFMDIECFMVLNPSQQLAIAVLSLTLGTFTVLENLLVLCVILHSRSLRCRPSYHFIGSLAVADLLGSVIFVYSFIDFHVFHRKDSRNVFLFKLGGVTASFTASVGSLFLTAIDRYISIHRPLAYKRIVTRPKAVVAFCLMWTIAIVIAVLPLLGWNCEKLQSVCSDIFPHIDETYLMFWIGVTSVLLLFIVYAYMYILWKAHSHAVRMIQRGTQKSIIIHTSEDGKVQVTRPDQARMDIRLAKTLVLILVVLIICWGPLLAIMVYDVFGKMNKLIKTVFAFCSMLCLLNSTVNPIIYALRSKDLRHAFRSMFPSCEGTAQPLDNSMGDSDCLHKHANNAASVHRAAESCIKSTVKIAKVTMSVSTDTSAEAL

Chain of CB2 receptor (P34972 whole entry): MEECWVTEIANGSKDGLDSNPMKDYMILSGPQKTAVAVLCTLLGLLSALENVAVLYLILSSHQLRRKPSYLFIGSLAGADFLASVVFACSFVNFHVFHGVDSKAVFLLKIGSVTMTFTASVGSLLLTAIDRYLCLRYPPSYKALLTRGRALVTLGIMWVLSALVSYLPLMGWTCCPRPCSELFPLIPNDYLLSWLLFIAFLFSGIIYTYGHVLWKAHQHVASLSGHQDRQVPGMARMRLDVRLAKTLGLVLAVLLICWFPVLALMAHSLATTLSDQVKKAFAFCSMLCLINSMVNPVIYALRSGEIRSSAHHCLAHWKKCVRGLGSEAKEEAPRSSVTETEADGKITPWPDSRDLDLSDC

SMILES | Effect on threshold pressure (ThP) ([1]; 3 mg/kg i.v., all time points, vs basal values) | Effect on basal pressure (BP) ([1]; 3 mg/kg i.v., from 0 to 60 min, p<0.05) | Effect on intercontraction interval (ICI) ([1]; vs basal values) | CB2/CB1 affinity ratio [2] | IC50 [2] [nM] | IC50 [3] [nM] | Effect on threshold pressure (ThP) ([1]; 0.5 mg/kg i.v., at 20, 40 and 60 min, p<0.05) | Effect on threshold pressure (ThP) ([1]; 1.5 mg/kg i.v., at 40 min, p<0.05) | Effect on threshold pressure (ThP) ([1]; 5 mg/kg i.v., at 20 and 40 min, p<0.05) | Effect on basal pressure (BP) ([1]; 5 mg/kg i.v., at 20 min, p<0.05) | Effect on threshold pressure (ThP) ([1]; 15 mg/kg i.v., at 20 min, vs basal values) | Effect on basal pressure (BP) ([1]; any dose (1.5, 5, 15 mg/kg i.v.) or time point, vs basal values)
CCCCCCC(C)(C)c1cc(O)c2c(c1)OC1CCCCCC21 (centres unmarked) [Formula III] | significantly increased | significantly increased | no effect | 14 | 6.5 | 92 | – | – | – | – | – | –
CCCCC(C)(C)c1cc(O)c([C@H]2C=C(CO)[C@H]3C[C@@H]2C3(C)C)c(O)c1 [Formula II] | – | – | no effect | 21 | 8.4 | 181 | Significant increases | Significant increases | Significant increases | significantly increased | – | –
O=S(=O)(NCC1CC1)c1ccc(Nc2ccc(Cl)cc2Cl)cc1C(F)(F)F [Formula IV, N-Cyclopropylmethyl-4-(2,4-dichloro-phenylamino)-2-trifluoromethyl-benzenesulfonamide] | – | – | no effect | 10 | 30 | 313 | – | – | – | – | significant increase | not changed
